How the values were obtained:
[1] = tested on: 3T3-L1 adipocytes; assay: LTA axon guidance gene expression in 3T3-L1 adipocytes (NanoString mouse innervation panel); format: cell-based; settings: 24 hrs; for Efna5 and Epha4 expression: TTNPB 50 nM or BMS493 100 nM
Experimental: FIG. 5A to 5I show retinoids regulate the LTA axon guiding secretome via ephrin A5. FIG. 5A: DRG neurons were cultured in DRG culture medium with secretome from Aldh1a1^−/− adipocytes (1/1, v/v) that were treated with or without RA (100 nM). RA was added to Aldh1a1^−/− differentiation medium (Day 0, 2, 5). To prepare this secretome, medium was collected for last 24 hours. Representative images were selected from three independent experiments. Average neurite growth indices were measured by XTI microscopy in DRG neurons in DRG culture medium containing veh (white bar), NGF (vertical lined bar), or Aldh1a1^−/− secretome treated without (black bar) or with RA (hatched bar). An asterisk indicates P<0.05; Mann-Whitney U test. FIG. 5B: 3T3-L1 adipocytes (n=3) were cultured in differentiation medium for 4 days. At day 5, medium was replaced by UV-treated 1% FBS-contained DMEM with and without Rald (30 nM). 24 hrs post stimulation, cells were harvested for mRNA. The gene expression was measured by the customized NanoString mouse innervation panel. […] Gene expression was measured by the NanoString mouse innervation panel. […] Protein levels of ephrin-A5 ligand (EFNA5) in medium EFNA5 and β-actin in cell lysates were analyzed by Western blot at Day 0, 2, 4, and 6. FIG. 5F: Plasma from WT and Aldh1a1^−/− mice (Table 1, Study 4) was measured by EFNA5 ELISA (n=5 per group) Table 1, Study 4. […] FIG. 5H: Tyrosine hydroxylase (TH) protein levels was analyzed in whole subcutaneous (Western blot insert) and iAb fat pads from mice injected with PBS (n=3) or EFNA5 (n=4, Table 1, Study 5) by Western blot. […] FIG. 5I: Heat (metabolic rate) was measured in PBS- and EFNA5-injected mice from Study 4 after 4° C. exposure by an open circuit indirect calorimetry treadmill (basal metabolic rate for 42 h is shown in FIG. 9C). […]
NanoString's nCounter analysis (NanoString Technologies) system performed direct detection of target molecules from a single sample using color-coded molecular barcodes, giving a digital quantification of the number of target molecules as described before (Shen et al., 2015, PMID: 25620076). […]

[2] = tested on: iAb (omental) fat explants; assay: LEP release from iAb (omental) fat explants of an obese patient (ELISA); format: cell-based, human; settings: EGFR-I, MAPK-I, PI3K-I
Experimental: FIGS. 14A to 14N show EREG induces expression of thermogenic and PPARα-target genes, suppresses inflammatory genes, and stimulates leptin secretion. FIGS. 14A to 14H and 14L: Markers for thermogenesis, adipogenesis, and inflammatory genes were analyzed using homogenates from whole iAb fat pads isolated from Veh- (white bars) and EREG-treated (black bars) DIO mice (Study 3). Gene expression was quantified using a customized NanoString panel. Data represent mean±SD, n.s.,—non-significant. FIG. 14I: LEP was measured in plasma in the same mice by ELISA. Data (mean±SD) are shown as percent to control (Veh, 100%) and is indicated as a dashed line. FIG. 14J: LEP release after stimulation with different concentrations of recombinant human EREGs was measured in explants of iAb (omental) tissue obtained from an obese insulin resistant patient. FIG. 14K: LEP release after stimulation of explants from same donor with and without EREG (50 ng/mL) in the presence and absence of insulin (Ins, 10 μg/mL), MAPK-I, EGFR-I, PI3K-I. Inhibitors concentrations were described in FIG. 1. FIG. 14M: LEP release after stimulation of iAb fat explants (2 h) from WT mice with different concentrations of recombinant mouse EREG. Experiment was repeated in three different WT mice. Data (mean±SD) are shown as percent to control (Veh, 100%). FIG. 14N: LEP release following stimulation of iAb fat explants (2 h) from WT mice with inhibitors of EGFR (10 μM) and MAPK (10 μM) in the presence or absence of EREG (50 ng/ml). Data (mean±SD) are shown as percent to control (Veh, 100%).
Abdominal fat tissue obtained from an obese patient was excised into 35 mg sections for stimulation with EREG. Explants were stimulated with EREG in DMEM containing 1% FBS for 2 h. Media was collected after 2 h, lyophilized and reconstituted in 120 μL deionized water for leptin detection using ELISA kit (Alpco, Salem, NH).

[3] = tested on: PPARα-LBD; assay: PPARα-LBD luciferase reporter in transiently transfected HEK293 cells; format: cell-based, human; settings: EREG 50 ng/mL; EGFR-I 10 μM, MAPK-I 10 μM, HSL-I 10 μM, SRC-I 1 μM, PI3K-I 100 nM
Experimental: FIGS. 11A to 11I show adipokine Ereg is bilaterally associated with obesity and thermogenesis and activates PPARα. […] Microarray gene analysis was performed using Affymetrix microarray. FIG. 11B: Ereg expression was measured in non-differentiated and differentiated (day 5) 3T3-L1 adipocytes (Mann-Whitney test) using a customized NanoString mouse panel. FIG. 11C: Ereg expression was measured in differentiated (day 5) 3T3-L1 and Aldh1a1^−/− adipocytes by Taqman and normalized to TATA box protein (TBP). FIG. 11D: Plasma EREG concentrations were measured in mice from Study 1 by western blot. […] FIG. 11E: Plasma EREG concentrations were measured and quantified in iAb of WT and ob/ob mice from Study 2 by western blot (n=5 per each group). […] FIG. 11F: EREG was measured in iAb, subcutaneous and brown fat by western blot. Fat pads were dissected from WT mice on regular chow (Study 1). FIG. 11G: Ucp2 and Ucp1 expression was measured in differentiated 3T3-L1 adipocytes (day 5) stimulated with vehicle (PBS) or recombinant EREG (50 ng/mL) added in the differentiation medium I and II. Expression level were measured by Taqman and normalized by TBP. FIGS. 11H and 11I: HEK293 cells were transiently transfected with PPARα-LBD, UASTK-luciferase, and renilla. […] Data represents % PPARα-LBD activation. Asterisks indicate significant difference (p<0.05) compared to vehicle control, #, indicates statistical difference between PPARα-LBD activation by EREG alone and in the presence of inhibitors. Data represent mean±SD. The Mann-Whitney test was used throughout these studies for group comparison.
HEK293 cells ([…] cells, 24-well plates) were used for transient transfection experiments. Cells were transfected with human PPARα-LBD construct, yeast UASTK luciferase reporter (SwitchGear Genomics, Menlo Park, CA), using Fugene (Roche Applied Science, Indianapolis, IN). Transfections were carried out in OptiMeM (Invitrogen, Carlsbad, CA) medium for 12 hours as described previously. Luciferase was measured using Promega assay according to manufacturer's instructions

[4] = tested on: 3T3-L1 preadipocytes; assay: FD-glucose uptake in 3T3-L1 preadipocytes; format: cell-based, mouse; settings: 30 mins; insulin 10 μg/ml, EREG 50 ng/ml, forskolin 4 μg/ml
Experimental: Non-differentiated, 90% confluent 3T3-L1 cells were starved with glucose-deprived medium for 40 min. Then cells were treated in the presence and absence of different concentrations of nanoscaffold #2 and bovine insulin (200 μg/mL), all of reagents dissolved in the same glucose-deprived medium but containing fluorescent-D (FD)-glucose for 80 min. Thereafter, the FD glucose uptake was measured according to manufacturer's instructions (Cayman Chemical, USA, cat #600471). […] Non-differentiated, 90% confluent 3T3-L1 cells treated in the presence and absence of different concentrations of nanoscaffold #2 and bovine insulin (10 μg/mL) or mouse epiregulin (EREG, 0.05 μg/mL) and incubated for 24 h. Then cells were starved with glucose-deprived medium for 40 min and, then incubated with fluorescent-D (FD)-glucose for 80 min. Thereafter, the FD glucose uptake was measured according to manufacturer's instructions (Cayman Chemical, USA, cat #600471). Data are shown as percent of uptake in the presence of insulin (100%).
Non-differentiated, 90% confluent 3T3-L1 cells treated in the presence of bovine insulin (10 μg/mL), mouse epiregulin (EREG, 0.05 μg/mL), or their combinations and incubated for 24 h. Then cells were starved with glucose-deprived medium for 40 min and, then incubated with fluorescent-D (FD)-glucose for 80 min. Thereafter, the FD glucose uptake was measured according to manufacturer's instructions (Cayman Chemical, USA, cat #600471).
Non-differentiated, 90% confluent 3T3-L1 cells were starved with glucose-deprived medium for 50 min. Then cells were treated in the presence and absence of different concentrations of mouse recombinant IGFBP4 with and without nanoscaffold #2 and human insulin (10 μg/mL). All of reagents were dissolved in the same glucose-deprived medium but containing fluorescent-D (FD)-glucose for 90 min. Thereafter, the FD glucose uptake was measured according to manufacturer's instructions (Cayman Chemical, USA, cat #600471).
Glucose uptake assay was performed using glucose uptake cell-based assay kit (Cayman Chemical, Ann Arbor, MI). 3T3-L1 or human preadipocytes were cultured at a density of 5×10^4 per well into a 96-well plate (n=7) in high glucose media and grown overnight. Old cell culture medium was removed the next day and washed with PBS to remove residual glucose. Supplied 2-deoxy-2-[(7-nitro-2,1,3-benzoxadiazol-4-yl)amino]-D-glucose) (2-NBDG) was diluted to 150 μg/mL in DMEM medium without glucose, phenol red, L-glutamine, sodium pyruvate, and HEPES (Life technologies, Grand Island, New York). 100 μL of 2-NBDG glucose free medium with or without recombinant EREG and other treatments was added to the plated cells. After incubating at 37° C. for 30 minutes, cells were washed gently two times with 200 μL of glucose assay buffer. 100 μL of the assay buffer was added to each well and measured for fluorescence at an excitation/emission of 485/535 nm.
Fluorescence glucose uptake (FD-glucose assay) was performed as described PMID: 32065973, using insulin, 1.7 μM and different AACs at concentration 0.1 μM.
FD-glucose uptake in mouse 3T3-L1 preadipocytes (n=8 per treatment) treated with vehicle (Veh; PBS, open bar) or hINS (1.7 μM), mouse leptin (mLep; 12.5 nM, hatched bar), or AAC2 (0.1 μM black bar) in the presence and absence of GLUT1 inhibitor (BAY-876; 10 nM in DMSO). Cells were pre-treated with or without BAY-876 for 40 min and then FD glucose and treatment reagents were added for additional 80 min of incubation. Data (%) was normalized to FD-glucose uptake in control (Veh) 3T3-L1 cells without inhibitor (100%). Student's independent t-test.

Structure (SMILES): CC1(C)CC=C(C#Cc2ccccc2)c2cc(/C=C/c3ccc(C(=O)O)cc3)ccc21 [BMS429]
- Efna5 and Epha4 expression [1]: induced

Structure (SMILES): COc1cc2ncnc(Nc3cccc(Cl)c3)c2cc1OC [EGFR inhibitor, Tyrphostin AG1478]
- EREG / insulin mediated LEP release in the presence of inhibitor [2]: inhibited
- EREG-dependent PPARα-LBD activation in the presence of inhibitor [3]: abolished

Structure (SMILES): COc1nn(-c2ccc(NC(=O)OCc3ccccc3)c(C)c2)c(=O)o1 [HSL inhibitor, CAY10499]
- EREG-dependent PPARα-LBD activation in the presence of inhibitor [3]: abolished

Structure (SMILES): N#CC(=C(/N)Sc1ccccc1N)/C(C#N)=C(\N)Sc1ccccc1N [MAPK inhibitor, U0126]
- EREG / insulin mediated LEP release in the presence of inhibitor [2]: inhibited
- EREG-dependent PPARα-LBD activation in the presence of inhibitor [3]: abolished

Structure (SMILES): COc1ccc(Cl)c(Nc2ncnc3cc(OCC4CCN(C)CC4)c(OC)cc23)c1 [SRC inhibitor, AZM475271]
- EREG-dependent PPARα-LBD activation in the presence of inhibitor [3]: now effect

Structure (SMILES): C/C(=C\c1ccc(C(=O)O)cc1)c1ccc2c(c1)C(C)(C)CCC2(C)C [TTNPB]
- Efna5 and Epha4 expression [1]: suppressed

Structure (SMILES): C=C[C@@]1(C)CC(=O)[C@]2(O)[C@@]3(C)[C@@H](O)CCC(C)(C)[C@@H]3[C@H](O)[C@H](OC(C)=O)[C@@]2(C)O1 [forskolin, reference compound]
- glucose uptake compared to non-stimulated 3T3-L1 preadipocytes [4]: 245%

Structure (SMILES): CC1=C(/C=C/C(C)=C/C=C/C(C)=C/C=O)C(C)(C)CCC1 [retinaldehyde]
- expression of molecules associated with the LTA-axon guidance secretome ([1]; Rald 30 nM): significantly increased
